Laboratory results published in patent publication US20100015240A1, “PROCESS FOR PREPARING MICROPARTICLES CONTAINING BIOACTIVE PEPTIDES” (priority 2008, published 2010).

Assay: Peptide solubility in polyols estimated by visual observation of solutions
Format: physicochemical
Settings: solvent propylene glycol
Text: Solubilities at various concentration ranges were estimated based on visual observations of solutions prepared at the indicated peptide concentration levels listed in Table II.

Measured: Peptide solubility at specified concentration level

C[C@@H](O)[C@@H]1NC(=O)[C@H](CCCCN)NC(=O)[C@@H](Cc2c[nH]c3ccccc23)NC(=O)[C@H](Cc2ccccc2)NC(=O)[C@@H](NC(=O)[C@H](N)Cc2ccccc2)CSSC[C@@H](C(=O)N[C@H](CO)[C@@H](C)O)NC1=O [Octreotide]
Soluble: 100 mg/mL | <10 mg/mL | at 10 mg/mL
